Data: patent US5618804A, “Methanediphosphonic acid derivative, process for production thereof and use for pharmaceuticals” (Toray Industries, Inc., priority 1992, dated 1997)

Key:
[1] = system: osteoclasts; assay: Inhibition of active-type vitamin D3-stimulated bone resorption (resorption pit formation on dentin slices); format: cell-based, mouse (ICR); details: 10 nM active-type vitamin D3, 4 days
Source text: In conditions of osteoporosis, it is thought that the balance between bone formation and bone resorption is lost, with bone resorption being accelerated. Bone resorption is thought to occur due to the activation and increase in the number of osteoclasts, and a model thereof is an experiment in which mouse osteocytes are planted on dentin slices, causing bone resorption due to the stimulation of active-type vitamin D3. Using this model, the bone resorption-inhibiting effects of the compounds according to the present invention were determined.
The femurs and tibias were separated from 10 to 15- day-old ICR mice, and minced in an α-MEM culture medium containing 5% fetal calf serum, and an osteoclast suspension was prepared containing bone marrow cells and bone matrix. The large bone fragments were removed using a nylon mesh, and the viable cells were stained using trypan blue staining, while the osteoclasts were stained using tartaric acid-resistant acidic phosphatase staining, and a cell suspension was prepared which contained the osteoclasts at a proportion of about 0.05-0.1%. The dentin was cut to thicknesses of 150 μm using a low-speed rotating diamond cutter, and punched with a puncher to the size of wells of a 96-well plate. The dentin slices were placed in a 96-well plate, and the cell suspension prepared as described above was placed thereupon to a concentration of 500 osteoclasts per well. As a stimulant, 10 nM active-type vitamin D3 was added thereto, and at the same time the preparations according to the present invention were added thereto to concentrations of 10 μM and 100 μM. The cells were cultured at 37° C. in 10% CO2 environment, and after 4 days' culture the resorption pits which formed on the dentin slices were stained with hematoxylin, and then observed under a microscope and counted. The rate of inhibition of resorption pit formation was calculated according to the following equation. [formula]
The results were indicated with "*" in cases where, based on statistical calculation using the Student t-test, the level of significance was P<0.05 and with "**" in cases where the level of significance was P<0.01 with respect to the active-type vitamin D3 -stimulated control group.

[2] = system: adjuvant arthritis; assay: Adjuvant arthritis test (foot edema and osteoclasia); format: in vivo, rat (7-week-old female Lewis rats); details: 20 mg/kg s.c., days 8-21; for Inhibition rate of osteoclasia with respect to control group: 22nd day, left and right hind legs, soft X-ray
[3] = system: neutrophils; assay: Inhibition of active oxygen release from fMLP-stimulated human neutrophils (CLA chemiluminescence); format: cell-based; details: 10 μm (so in the source)
Protocol: Neutrophils are known to ingest foreign bodies for their removal and to produce active oxygen and digestive enzymes, as a biological defense mechanism. However, during chronic inflammation, etc., the active oxygen and digestive enzymes produced by neutrophils also damage normal tissue, and are thought to further reinforce inflammation. Here, the effects of the compounds according to the present invention against the release of active oxygen from neutrophils were determined in the following manner.
Using 3.8% sodium citrate as an anticoagulant, 50 ml of blood was taken from a human vein. […] Of these neutrophils, 1×10^5 cells were incubated at 37° C. with […] of the stimulant, formyl-methionyl-leucyl-phenylalanine (fMLP), and at the same time the compounds according to the present invention were added thereto and the production of active oxygen was measured. For the measurement of the active oxygen, 2-methyl-6-phenyl-3,7-dihydroimidazo [1,2a]pyrazine-3-one (CLA) was reacted therewith resulting in excited carbonyl compounds, and utilizing the phenomenon whereby light is emitted at 380 nm during their transition to ground state, the maximum luminescence intensity was measured with a luminometer. The inhibition rate against active oxygen production was calculated according to the following equation. […]

[4] = system: Rabbit cartilage cells; assay: IL-1-inhibiting effect: proteoglycan degradation in IL-1-stimulated rabbit cartilage cells; format: cell-based, rabbit (New Zealand white); details: IL-1-stimulated (30 units/ml rhIL-1β), 100 μM compound, 24 h
Protocol: Rabbit cartilage cells are separated from knee joint and cultured. When they are stimulated with IL-1, proteoglycan, the main constituent glycoprotein of cartilage cells, is degraded. Using this consequence as an index, the IL-1-inhibiting effects of the compounds according to the present invention were determined in the following manner.
Three-week-old male New Zealand white rabbits weighing 250 g-300 g were sacrified under diethyl ether anesthesia, and their knee joints were separated. The cartilaginous sections were cut out from the knee joint with a scalpel, and then immersed in CMF solution containing 0.14M sodium chloride, 4 mM potassium chloride, 0.4 mM sodium dihydrogen phosphate, 12 mM sodium bicarbonate, 0.2 mM potassium dihydrogen phosphate and 11 mM glucose. The cartilage was placed in 0.1% EDTA and incubated at 37° C. for 20 minutes. The supernatant was removed off, 0.15% trypsin was added to the mixture, and then that was incubated at 37° C. for 60 minutes. The mixture was washed 3 times with CMF solution, and then placed in […] and further treated at 37° C. for 105 minutes. […]
Each of the obtained counts was divided by the count at the initial addition of inorganic sulfuric acid, and expressed as a percentage. […]

[5] = system: Mouse Macrophage Cell Line J774-1; assay: Inhibition of IL-1 production by LPS-stimulated mouse macrophage cell line J774-1 (IL-1 activity by thymocyte proliferation); format: cell-based; details: 100 μM compound, 1 μg/ml LPS, 24 h, read-out: IL-1 production inhibition rate with respect to control group
Protocol: Effect Against Production of IL-1 by Mouse Macrophage Cell Line J774-1
With this cell line, the inhibitory effects to IL-1 production of the compounds according to the present invention were determined by the following procedure.
J774-1 cells were cultured in an RPMI-1640 culture medium containing 10% fetal calf serum and 50 μM of 2-mercaptoethanol, and prepared to a cell concentration of 2×10^5 cells/ml. The cell suspension was distributed into a 24-well plate to 1 ml per well, and cultured for 30 minutes. […]
A two-fold serial dilution was made of the above obtained sample in a 96-well multiplate to a volume of 50 μl per well, and 50 μl of the T cell suspension was added to each well. The T cells were cultured for 72 hours, and the IL-1 activity was determined by the rate of cell proliferation. The cell proliferation was calculated using as the value of the absorbance at 570 nm of the pigment produced upon reduction of 3-[4,5-dimethylthiazole-2-yl]-2,5-diphenyltetrazolium bromide by the mitochondria of the viable cells, added at 4 hours prior to completion of the culturing, with 100% proliferation defined as the maximum proliferation of T cells induced by recombinant human IL-1, 0% defined as proliferation with no addition of IL-1, and the units of the sample defined as the degree of dilution of the sample which caused 50% proliferation of the T cells. […]

SMILES | Inhibition rate (resorption pit formation) with respect to control ([1]; 10 μM) | Inhibition rate (resorption pit formation) with respect to control ([1]; 100 μM) | Inhibition rate of osteoclasia with respect to control group [2] | Inhibition rate of edema with respect to control group ([2]; left paw, 17th day) | Inhibition rate of edema with respect to control group ([2]; left paw, 21st day) | Inhibition rate of edema with respect to control group ([2]; right paw, 17th day) | Inhibition rate of edema with respect to control group ([2]; right paw, 21st day) | Active oxygen production inhibition rate [3] | proteoglycan count in cell layer relative to count at initial addition of inorganic sulfuric acid ([4]; not stimulated 0.45, IL-1-stimulated control 0.11) | proteoglycan count in supernatant relative to count at initial addition of inorganic sulfuric acid ([4]; not stimulated 0.63, IL-1-stimulated control 1.06) | inhibition at 100 µM [5] | Inhibition rate of edema with respect to control group ([2]; left paw, 16th day) | Inhibition rate of edema with respect to control group ([2]; right paw, 16th day)
COc1ccc2cc(SC(P(=O)(O)O)P(=O)(O)O)ccc2c1 [Example 4, 6-Methoxy-2-naphthylthiomethanediphosphonic Acid] | 47.7 ± 2.18% | 94.8 ± 1.04% | 55.2% | 80.0% | 93.0% | 40.8% | 33.4% | – | – | – | – | – | –
O=P(O)(O)C(Sc1ccc2ccccc2c1)P(=O)(O)O [Example 2, 2-naphthylthiomethane Diphosphonic Acid] | 18.8 ± 6.23% | 92.1 ± 0.43% | 75.2% | 76.8% | 94.5% | 35.2% | 44.3% | 29.4 ± 6.58% | 0.31 ± 0.011 | 0.78 ± 0.015 | 41.7% | – | –
O=P(O)(O)C(Sc1ccc2cc(O)ccc2c1)P(=O)(O)O [Example 6, 6-Hydroxy-2-naphthylthiomethanediphosphonic Acid] | 30.6 ± 12.5% | 90.8 ± 1.33% | 60.3% | – | 117.3% | – | 39.9% | – | – | – | – | 85.6% | 31.8%
